Reference: patent US9701655B2, “Functionalised benzopyran compounds and use thereof” (NOVOGEN LIMITED, priority 2014, dated 2017)
In brackets after ≈: the same amount, converted by molar mass. Read-outs that look alike come from different tables or passages of the source.

Assays:
HepG2 = test: Proliferation of somatic cancer cells (cell-titre luminescence), HepG2; type: cell-based; conditions: Liver HepG2, 72 hrs
Summary of the method: (§1)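 Cells were seeded at pre-determined densities in ATCC-recommended media and allowed to attach for 24 hrs at 37° C. and 5% CO2. They were then exposed to compound at 30, 3, 0.3 and 0.03 μM for 72 hrs, followed by cell-titre luminescent reagent for 30 mins. IC50 was derived by linear regression of semi-log percent-of-control plots.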

HT-29 = test: Proliferation of somatic cancer cells (cell-titre luminescence), HT-29; type: cell-based; conditions: Homo sapiens; Colorectal HT-29, 72 hrs
Summary of the method: as §1

U87-MG = test: Proliferation of somatic cancer cells (cell-titre luminescence), U87-MG; type: cell-based; conditions: Homo sapiens, U-87 MG; Brain U87-MG, 72 hrs
Summary of the method: as §1

MCF-7 = test: Proliferation of somatic cancer cells (cell-titre luminescence), MCF-7; type: cell-based; conditions: Homo sapiens, MCF7; Breast MCF-7, 72 hrs
Summary of the method: as §1

OCSC2 = test: Ovarian cancer stem cell proliferation/cytotoxicity (Incucyte, CellTox), OCSC2; type: cell-based; conditions: Homo sapiens
Summary of the method: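 CD44+ve ovarian cancer stem cells from patient-derived explants were treated in RPMI/10% FBS at 0.001–10 μg/ml with CellTox reagent (1:1000) and imaged every 2 hrs. Confluence growth curves gave proliferation rate. IC50 was derived from area under the CellTox count/mm^2-versus-time curve.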

GBM14-CHA = test: Cell viability (CellTiter-Glo ATP) in GBM patient-derived explant GBM14-CHA; type: cell-based, human; conditions: Homo sapiens, 72 h, 72 hrs exposure
Summary of the method: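 Primary cells from dissociated GBM14-CHA patient-derived xenografts, grown in F12/DMEM with 8% FBS, seeded at 2.5×10^3 cells/well and left 48 h before compound addition. Exposure lasted 72 h at 37° C.; viability measured as cellular ATP by CellTiter-Glo luminescence at T0 and 72 h.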

[1] = Pharmacokinetic testing, i.v. cassette dose; type: in vivo, Sprague-Dawley rats; conditions: rat, tail vein cassette dose, 1 mg/Kg each, 30% Captisol
Procedure: FIG. 10: PK profile of compounds 2, 6, 9 and 13 (which is labelled as 31) at 1 mg/kg delivered in 30% Captisol® formulation.
A study of the pharmacokinetic behavior of compounds 2, 6, 9, 13 was performed.
The study comprised Phase 1, a preformulation study ensuring all compounds were soluble in 30% Captisol® solution and formed a homogenous mixture suitable for i.v delivery. A number of LC-MS methods were developed and partially validated to ensure each analyte could be quantified from the plasma matrix and that there was no interference between any of the analytes. Phase 2 comprised the in-life study whereby Sprague-Dawley rats were acclimatised for three days prior to being injected in the tail vein with a cassette dose of four compounds, each at a final concentration of 1 mg/Kg. A total of three rats were used in the study with blood sampling with anticoagulant tubes at 5 mins, 30 mins, 1 hr, 2 hrs, 4 hrs, 6 hrs and 8 hrs. The third phase of the study was the bioanalysis of the analytes. The blood samples were centrifuged at 1200 rpm for 10 mins at 4° C. After the RBCs and the plasma were separated, the plasma was stored at −80 ° C. until processed and injected into the LC-MS. Samples from individual rats were treated as individual samples with the PK profile generated from the mean of the data from the three rats.

[2] = OCSC-2, read-out: concentrations retarding/inhibiting proliferation of ovarian cancer stem cells

COc1cc(C2COc3c(ccc(O)c3C)C2c2ccc(O)cc2)cc(OC)c1O (racemic) [Compound 2, 3-(4-Hydroxy-3,5-dimethoxyphenyl)-4-(4-hydroxyphenyl)-8-methylchroman-7-ol]
IC50 (HepG2; Homo sapiens, HepG2, 72 h): 1900 nM
IC50 (HT-29): 8.2 µM
IC50 (U87-MG): 50 nM
IC50 (MCF-7): 13.6 µM
IC50 (OCSC2; OCSC2, cell damage fluorescence, read-out: IC50, CellTox green): 0.051 µg/mL (≈ 0.125 µM)
IC50 (OCSC2; OCSC2, confirmatory study with more concentrations, 72 hrs, read-out: IC50, Incucyte confluence): 0.052 µg/mL (≈ 0.127 µM)
IC50 (OCSC2; [2]): 0.01 to 0.1 µg/mL (≈ 0.0245 to 0.245 µM)
IC50 (GBM14-CHA): 140 nM
plasma concentrations (PK behaviour) [1]: achieve plasma concentrations with the proposed pharmaceutic window of efficacy

COc1cc(C2COc3cc(O)ccc3C2c2ccc(O)c(F)c2)cc(OC)c1O (racemic) [Compound 6, 4-(3-Fluoro-4-hydroxyphenyl)-3-(4-hydroxy-3,5-dimethoxyphenyl)chroman-7-ol]
IC50 (HepG2; Homo sapiens, HepG2, 72 h): < 4000 nM
IC50 (HepG2): 2000 nM
IC50 (HT-29): 8.4 µM
IC50 (U87-MG): 478 nM
IC50 (MCF-7): > 30 µM
IC50 (OCSC2; OCSC2, read-out: IC50 Range): 0.1 to 1 µg/mL (≈ 0.242 to 2.42 µM)
IC50 (OCSC2; [2]): 0.1 to 1 µg/mL (≈ 0.242 to 2.42 µM)
IC50 (GBM14-CHA): 190 nM
plasma concentrations (PK behaviour) [1]: achieve plasma concentrations with the proposed pharmaceutic window of efficacy

COc1cc(C2COc3c(ccc(O)c3C)C2c2ccc(O)c(F)c2)cc(OC)c1O (racemic) [Compound 9, 4-(3-Fluoro-4-hydroxyphenyl)-3-(4-hydroxy-3,5-dimethoxyphenyl)-8-methylchroman-7-ol]
IC50 (HepG2; Homo sapiens, HepG2, 72 h): < 4000 nM
IC50 (HepG2): 3700 nM
IC50 (HT-29): 6.5 µM
IC50 (U87-MG): 50 nM
IC50 (MCF-7): > 30 µM
IC50 (OCSC2; OCSC2, read-out: IC50 Range): 0.1 to 1 µg/mL (≈ 0.234 to 2.34 µM)
IC50 (OCSC2; OCSC-2, confluence, 72 hrs (FIG. 4), read-out: IC50): 0.12 µg/mL (≈ 0.281 µM)
IC50 (OCSC2; [2]): 0.1 to 1 µg/mL (≈ 0.234 to 2.34 µM)
IC50 (GBM14-CHA): 190 nM
plasma concentrations (PK behaviour) [1]: achieve plasma concentrations with the proposed pharmaceutic window of efficacy
